Measured values reported in patent publication US9914730B2, “Azaquinazoline inhibitors of Atypical protein Kinase C” (Ignyta, Inc., priority 2012, dated 2018).

Biological target: T1, full-length human PKCι (Homo sapiens, UniProt P41743)
T1 construct: Recombinant, full-length human PKCι expressed in Sf21 insect cells is also commercially available; purchased; host or cells: Sf21 insect cells
T1 sequence (P41743 1-596): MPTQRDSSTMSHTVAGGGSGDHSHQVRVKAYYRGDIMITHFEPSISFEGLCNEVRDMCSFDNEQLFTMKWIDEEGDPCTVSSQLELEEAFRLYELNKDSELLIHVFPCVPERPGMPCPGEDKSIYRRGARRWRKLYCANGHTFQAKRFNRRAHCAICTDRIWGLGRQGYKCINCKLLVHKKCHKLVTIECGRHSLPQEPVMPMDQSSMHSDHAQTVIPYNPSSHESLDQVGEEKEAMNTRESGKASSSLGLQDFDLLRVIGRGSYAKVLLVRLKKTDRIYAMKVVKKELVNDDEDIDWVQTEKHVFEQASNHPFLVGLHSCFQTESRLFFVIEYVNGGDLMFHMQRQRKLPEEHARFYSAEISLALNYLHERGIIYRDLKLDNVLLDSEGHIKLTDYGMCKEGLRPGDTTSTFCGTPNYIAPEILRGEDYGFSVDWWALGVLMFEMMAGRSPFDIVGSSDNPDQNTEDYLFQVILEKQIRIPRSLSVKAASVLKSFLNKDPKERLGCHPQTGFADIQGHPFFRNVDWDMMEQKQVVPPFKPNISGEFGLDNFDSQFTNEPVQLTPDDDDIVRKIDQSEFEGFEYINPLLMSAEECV
Assay: PKCι IC50 IMAP assay, full-length PKCι at 150 μM ATP
Assay type: biochemical
Conditions: read-out: IC50 in IMAP assay against full length PKCi at 150 μM ATP
How it was run: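 Phosphorylation of a 5FAM-tagged PKCε pseudopeptide-derived substrate (100 nM) by full-length recombinant human PKCι was monitored by IMAP fluorescence polarisation. ATP was held at 150 μM, five times its apparent KM, with 60 min room-temperature incubation.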

Molecule	IC50
CN1CCN(c2cccc(Nc3cc(-c4nc(N5CC[C@H](O)C5)c5c(C6CC6)cncc5n4)ccn3)c2)CC1 [Example 727, (S)-1-(5-Cyclopropyl-2-{2-[3-(4-methyl-piperazin-1-yl)-phenylamino]-pyridin-4-yl}-pyrido[3,4-d]pyrimidin-4-yl)-pyrrolidin-3-ol]	< 100 nM
CN1CCC(Sc2nc(-c3ccnc(Nc4c(F)cccc4F)c3)nc3cncc(C4CC4)c23)CC1 [Example 2128, {4-[5-Cyclopropyl-4-(1-methyl-piperidin-4-ylsulfanyl)-pyrido[3,4-d]pyrimidin-2-yl]-pyridin-2-yl}-(2,6-difluoro-phenyl)-amine]	100 to 1000 nM
COc1cncc2nc(-c3ccnc(Nc4cncnc4)c3)nc(N[C@@H]3CCNC3)c12 [Example 385, {5-Methoxy-2-[2-(pyrimidin-5-ylamino)-pyridin-4-yl]-pyrido[3,4-d]pyrimidin-4-yl}-(R)-pyrrolidin-3-yl-amine]	100 to 1000 nM
FC(F)(F)c1cc2c(-c3nc(N4CCNCC4)c4c(C5CCCC5)cncc4n3)ccnc2[nH]1 [Example 2105, 5-Cyclopentyl-4-piperazin-1-yl-2-(2-trifluoromethyl-1H-pyrrolo[2,3-b]pyridin-4-yl)-pyrido[3,4-d]pyrimidine]	< 100 nM
O[C@H]1Cc2ccccc2[C@@H]1Nc1cc(-c2nc(N3CCNCC3)c3c(C4CC4)cncc3n2)ccn1 [Example 2141, (1S,2S)-1-[4-(5-Cyclopropyl-4-piperazin-1-yl-pyrido[3,4-d]pyrimidin-2-yl)-pyridin-2-ylamino]-indan-2-ol]	< 100 nM
C[C@H]1CN(c2nc(-c3ccnc(Nc4nc(F)ccc4F)c3)nc3cncc(C4CC4)c23)CCN1 [Example 694, {4-[5-Cyclopropyl-4-((S)-3-methyl-piperazin-1-yl)-pyrido[3,4-d]pyrimidin-2-yl]-pyridin-2-yl}-(3,6-difluoro-pyridin-2-yl)-amine]	< 100 nM
N[C@H](CNc1nc(-c2ccncc2)nc2c(-c3ccc(O)cc3)nccc12)Cc1ccccc1 [Example 91, 4-(4-{[(2S)-2-amino-3-phenylpropyl]-amino}-2-(pyridin-4-yl)pyrido[3,4-d]-pyrimidin-8-yl)phenol]	100 to 1000 nM
Fc1ccc(Cl)c(Nc2cc(-c3nc(N4CCNCC4)c4c(C5CC5)cncc4n3)ccn2)c1 [Example 576, (2-Chloro-5-fluoro-phenyl)-[4-(5-cyclopropyl-4-piperazin-1-yl-pyrido[3,4-d]pyrimidin-2-yl)-pyridin-2-yl]-Amine]	< 100 nM
COc1cncc2nc(-c3ccnc(Nc4ccc(C#N)cn4)c3)nc(N3CCNCC3)c12 [Example 353, 6-[4-(5-Methoxy-4-piperazin-1-yl-pyrido[3,4-d]pyrimidin-2-yl)-pyridin-2-ylamino]-nicotinonitrile]	< 100 nM
c1cc(-c2nc(N3CCNCC3)c3c(C4CC4)cncc3n2)cc(NC2CCCC2)n1 [Example 281, Cyclopentyl-[4-(5-cyclopropyl-4-piperazin-1-yl-pyrido[3,4-d]pyrimidin-2-yl)-pyridin-2-yl]-amine]	< 100 nM
COc1cncc2nc(-c3ccnc(Nc4ccncn4)c3)nc(N3CCNCC3)c12 [Example 211, [4-(5-Methoxy-4-piperazin-1-yl-pyrido[3,4-d]pyrimidin-2-yl)-pyridin-2-yl]-pyrimidin-4-yl-amine]	< 100 nM
CC(C)(C)c1cc2c(-c3nc(N4CCNCC4)c4c(Br)cncc4n3)ccnc2[nH]1 [Example 2120, 5-Bromo-2-(2-tert-butyl-1H-pyrrolo[2,3-b]pyridin-4-yl)-4-piperazin-1-yl-pyrido[3,4-d]pyrimidine]	< 100 nM
NC(=O)c1cccc(Nc2cc(-c3nc(N[C@@H]4CCNC4)c4ccncc4n3)ccn2)c1 [Example 308, 3-{4-[4-((R)-Pyrrolidin-3-ylamino)-pyrido[3,4-d]pyrimidin-2-yl]-pyridin-2-ylamino}-benzamide]	100 to 1000 nM
CN1CCN(c2nccc3c(NC[C@H](N)Cc4ccccc4)nc(-c4ccncc4)nc23)CC1 [Example 127, (R)—N^1-[8-(4-Methyl-piperazin-1-yl)-2-pyridin-4-yl-pyrido[3,4-d]pyrimidin-4-yl]-3-phenyl-propane-1,2-diamine]	10000 to 40000 nM
COc1cncc2nc(-c3ccnc(Nc4cc(C#N)ccn4)c3)nc(N3CCNCC3)c12 [Example 352, 2-[4-(5-Methoxy-4-piperazin-1-yl-pyrido[3,4-d]pyrimidin-2-yl)-pyridin-2-ylamino]-isonicotinonitrile]	< 100 nM
CC1(C)CN(c2nc(-c3ccnc(Nc4ccn(CC(F)(F)F)n4)c3)nc3cncc(C4CC4)c23)CCN1 [Example 2017, {4-[5-Cyclopropyl-4-(3,3-dimethyl-piperazin-1-yl)-pyrido[3,4-d]pyrimidin-2-yl]-pyridin-2-yl}-[1-(2,2,2-trifluoro-ethyl)-1H-pyrazol-3-yl]-amine]	< 100 nM
(2,6-Difluoro-phenyl)-{2-[2-(2,6-difluoro-phenylamino)-pyridin-4-yl]-4-piperazin-1-yl-pyrido[3,4-d]pyrimidin-5-yl}-amine [Example 262]	100 to 1000 nM
COc1cncc2nc(-c3ccncc3)nc(N3CCNCC3)c12 [Example 31, 1-[5-methoxy-2-(pyridin-4-yl)-pyrido[3,4-d]-pyrimidin-4-yl]-piperazine]	100 to 1000 nM
C[C@@H](Nc1cc(-c2nc(N3CCNCC3)c3c(C4CC4)cncc3n2)ccn1)C1CCCCC1 [Example 811, ((R)-1-Cyclohexyl-ethyl)-[4-(5-cyclopropyl-4-piperazin-1-yl-pyrido[3,4-d]pyrimidin-2-yl)-pyridin-2-yl]-amine]	< 100 nM
FC(F)(F)c1ccc(Nc2cc(-c3nc(N4CCNCC4)c4c(C5CC5)cncc4n3)ccn2)cn1 [Example 270, [4-(5-Cyclopropyl-4-piperazin-1-yl-pyrido[3,4-d]pyrimidin-2-yl)-pyridin-2-yl]-(6-trifluoromethyl-pyridin-3-yl)-amine]	100 to 1000 nM
COc1cncc2nc(-c3ccnc(Nc4cccnc4)c3)nc(N[C@@H]3CCNC3)c12 [Example 377, {5-Methoxy-2-[2-(pyridin-3-ylamino)-pyridin-4-yl]-pyrido[3,4-d]pyrimidin-4-yl}-(R)-pyrrolidin-3-yl-amine]	100 to 1000 nM
Fc1ccccc1Nc1cc(-c2nc(N3CCNCC3)c3c(Nc4ccccc4F)cncc3n2)ccn1 [Example 248, (2-Fluoro-phenyl)-{2-[2-(2-fluoro-phenylamino)-pyridin-4-yl]-4-piperazin-1-yl-pyrido[3,4-d]pyrimidin-5-yl}-amine]	< 100 nM
COc1cncc2nc(-c3ccnc(Nc4ccccc4)c3)nc(NCCC(N)=O)c12 [Example 458, 3-[5-Methoxy-2-(2-phenylamino-pyridin-4-yl)-pyrido[3,4-d]pyrimidin-4-ylamino]-propionamide]	1000 to 10000 nM
COc1cncc2nc(-c3ccnc(Nc4ccc(N5CCN(C)CC5)cc4C)c3)nc(N3CCNCC3)c12 [Example 413, [4-(5-Methoxy-4-piperazin-1-yl-pyrido[3,4-d]pyrimidin-2-yl)-pyridin-2-yl]-[2-methyl-4-(4-methyl-piperazin-1-yl)-phenyl]-amine]	< 100 nM
Fc1cccc(F)c1Nc1cc(-c2nc(N3CCNCC3)c3c(C4CCC4)cncc3n2)ccn1 [Example 620, [4-(5-Cyclobutyl-4-piperazin-1-yl-pyrido[3,4-d]pyrimidin-2-yl)-pyridin-2-yl]-(2,6-difluoro-phenyl)-amine]	< 100 nM
Fc1cccc(F)c1Nc1cc(-c2nc(N3CCCNCC3)c3c(C4CC4)cncc3n2)ccn1 [Example 702, [4-(5-Cyclopropyl-4-[1,4]diazepan-1-yl-pyrido[3,4-d]pyrimidin-2-yl)-pyridin-2-yl]-(2,6-difluoro-phenyl)-amine]	100 to 1000 nM
Fc1ccc(Nc2cc(-c3nc(N4CCNCC4)c4c(C5CC5)cncc4n3)ccn2)cn1 [Example 672, [4-(5-Cyclopropyl-4-piperazin-1-yl-pyrido[3,4-d]pyrimidin-2-yl)-pyridin-2-yl]-(6-fluoro-pyridin-3-yl)-amine]	< 100 nM
COc1cncc2nc(-c3ccnc(NC(=O)C4CC4)c3)nc(N3CCC(O)CC3)c12 [Example 234, Cyclo-propane-carboxylic acid {4-[4-(4-hydroxy-piperidin-1-yl)-5-methoxy-pyrido[3,4-d]pyrimidin-2-yl]-pyridin-2-yl}-amide]	100 to 1000 nM
c1cc(-c2nc(N3CCNCC3)c3c(C4CC4)cncc3n2)c2cc(C3CCCCC3)[nH]c2n1 [Example 2152, 5-Cyclopropyl-2-(2-cyclohexyl-1H-pyrrolo[2,3-b]pyridin-4-yl)-4-piperazin-1-yl-pyrido[3,4-d]pyrimidine]	< 100 nM
Cc1ccc(Nc2cc(-c3nc(N4CCNCC4)c4c(C5CC5)cncc4n3)ccn2)cn1 [Example 546, [4-(5-Cyclopropyl-4-piperazin-1-yl-pyrido[3,4-d]pyrimidin-2-yl)-pyridin-2-yl]-(6-methyl-pyridin-3-yl)-amine]	< 100 nM
